Results as given in patent publication US20170176446A1, “Methods for Determining the Oncogenic Condition of Cell, Uses Thereof, and Methods for Treating Cancer” (INSERM (INSTITUT NATIONAL DE LA SANTE ET DE LA RECHERCHE …, priority 2009, published 2017).

Tested on: MCF7 cells
Experiment: OCDO production by MCF7 cells incubated with [14C]CE, thin-layer chromatography
Format: cell-based, human
Summary of the method: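 MCF7 cells incubated with [14C]CE; lipids extracted, separated by silica TLC in ethyl acetate and quantified by phosphorimager densitometry. OCDO inhibition came from oxysterol proportions, OCDO over CEE+CE+CT+OCDO.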

[1] = MCF7 cells, [14C]CEα, three days, concentration given with each compound, share of labeled oxysterols

## c1ccc(Cc2ccc(OCCN3CCCC3)cc2)cc1 [PBPE, N,N-pyrrolidino-[(4-benzyl)phenoxy]ethanamine]
Homo sapiens, MCF7, MCF-7, 40 μM PBPE, 48 hours
  inhibition at 40 µM: 100%
[1]
  % CE: 89.2%
  % CT: 4.6%
  % OCDO: 6.2%
Concentration in μM in parentheses after each molecule, control = 100
  OCDO production by MCF-7 (% control): <1 % control
